From patent US6716834B2, “Thiochromane derivatives and their use as thrombin inhibitors” (AstraZeneca AB, priority 2000, dated 2004) come the findings set out here.

What is called IC50 is the point on the concentration scale where inhibition reaches its midpoint. Higher therefore signals lower potency.

Series [1] in a line: Test G: Metabolic Activation of Prodrug Compounds in vitro. The format is in vitro ADME, human or rat. How it is done: Metabolic Activation of Prodrug Compounds in vitro
Prodrug compounds of formula IA are incubated at 37° C. with liver microsomes or 10 000 g (referring to the centrifuge speed) supernatant fractions (i.e. s9 fraction) prepared from human or rat liver homogenate. The total protein concentration in the incubations are 1 or 3 mg/mL dissolved in 0.05 mol/L TRIS buffer (pH 7.4), and with the cofactors NADH (2.5 mmol/L) and NADPH (0. 8 mmol/L) present. The total volume of the incubate is 1.2 mL. The initial prodrug concentrations are 5 or 10 ? mol/L. Samples are collected from the incubate at regular is intervals more than 60 minutes after the start of the incubations. Samples (25 ? L) from the incubate are mixed with an equal volume of human or rat plasma and an appropriate amount of thrombin, and the clotting time (i.e. thrombin time) is measured on a coagulometer (KC 10; Amelung). The amount of “active” thrombin inhibitor formed is estimated by the use of standard curves relating the thrombin time in pooled citrated human or rat plasma to known concentrations of the corresponding “active thrombin inhibitor”.
The amount of “active” thrombin inhibitor is alternatively, or in addition to the above-mentioned method, estimated by the use of LC-MS.

A further series deals with T1, Human thrombin (Homo sapiens, UniProt P00734).
T1 construct: purchased Sigma Chem. Co or Hematologic Technologies T 6769
Briefly: Test A: Determination of Thrombin Clotting Time (TT). The format is biochemical. Conditions: concentration of inhibitor that doubles the thrombin clotting time in plasma. How it is done: Determination of Thrombin Clotting Time (TT)
The inhibitor solution (25 ? L) is incubated with plasma (25 ? L) for three minutes. Human thrombin (T 6769; Sigma Chem. Co or Hematologic Technologies) in buffer solution, pH 7.4 (25 ? L, 4.0 NIH units/mL), is then added and the clotting time measured in an automatic device (KC 10; Amelung).
The thrombin clotting time (TT) is expressed as absolute values (seconds) as well as the ratio of TT without inhibitor (TT0) to TT with inhibitor (TTi). The latter ratios (range 1-0) are plotted against the concentration of inhibitor (log transformed) and fitted to sigmoidal dose-response curves according to the equation
where: a=maximum range, i.e. 1; s=slope of the dose-response curve; and IC50=the concentration of inhibitor that doubles the clotting time. The calculations are processed on a PC using the software program GraFit Version 3, setting equation equal to: Start at 0, define end=1 (Erithacus Software, Robin Leatherbarrow, Imperial College of Science, London, UK).

The nature of series [2]: Test E: Determination of Thrombin Time ex vivo (bioavailability of active inhibitor after prodrug administration). Type of series: in vivo. The note with it: rat. From the text: Determination of Thrombin Time ex vivo
The inhibition of thrombin after oral or parenteral administration of the compounds of formula I, dissolved in ethanol:Solutol3:water (5:5:90), is examined in conscious rats which, one or two days prior to the experiment, are equipped with a catheter for blood sampling from the carotid artery. On the experimental day blood samples are withdrawn at fixed times after the administration of the compound into plastic tubes containing 1 part sodium citrate solution (0.13 mol per L) and 9 parts of blood. The tubes are centrifuged to obtain platelet poor plasma. The plasma is used for determination of thrombin time or ecarin clotting time (ECT) as described below.
The citrated rat plasma, 100 ? L, is diluted with a saline solution, 0.9%, 100 ? […] The clotting time is measured in an automatic device (KC 10, Amelung, Germany). […]
Based on the estimated plasma concentrations of the active thrombin inhibitor (which assumes that thrombin time or ECT prolongation is caused by the aforementioned compound) in the rat, the area under the curve after oral and/or parenteral administration of the corresponding prodrug compound of formula I is calculated (AUCpd) using the trapezoidal rule and extrapolation of data to infinity.
The bioavailability of the active thrombin inhibitor after oral or parenteral administration of the prodrug is calculated as below: […]

Molecules are shown by their SMILES.

On to `COc1cc(Cl)cc2c1S(=O)(=O)CC[C@]2(O)C(=O)N1CC[C@H]1C(=O)NCc1ccc(C(N)=NC(=O)OC2CCCC2)cc1` [Example 5, (R)-6-Chloro-4-hydroxy-8-methoxy-1,1-dioxothiochromane-4-yl-C(O)-Aze-Pab(C(O)-O-cyclopentyl)], for which the “oral and/or parenteral bioavailability as the corresponding active inhibitor (free amidine)” value in series [1] is given as “exhibit oral and/or parenteral bioavailability in the rat as the corresponding active inhibitor (free amidine)”. Consider `COc1cc(Cl)cc2c1[S+]([O-])CCC2(O)C(=O)N1CCC1C(=O)NCc1ccc(C(=N)N)cc1` (single isomer, unassigned) [Example 8, 6-Chloro-4-(R)-hydroxy-8-methoxy-1-(R or S)-oxo-thiochromane-4-yl-C(O)-Aze-PabxTFA], for which the IC50 on Human thrombin was < 50 nM. Turning to `N=C(N)c1ccc(CNC(=O)C2CCN2C(=O)C2(O)CCS(=O)(=O)c3c(OC(F)F)cc(Cl)cc32)cc1` (centres unmarked) [Example 7, 6-Chloro-8-difluoromethoxy-4-hydroxy-1,1-dioxothiochromane-4-yl-C(O)-Aze-Pab], at Human thrombin, the IC50 is < 50 nM. Same read-out and setting: with `N=C(N)c1ccc(CNC(=O)[C@@H]2CCN2C(=O)[C@@]2(O)CCS(=O)(=O)c3ccc(Cl)cc32)cc1` [Example 3, (R)-6-Chloro-4-hydroxy-1,1-dioxothiochromane-4-yl-C(O)-Aze-Pab] the figure was < 50 nM. With `CON=C(N)c1ccc(CNC(=O)[C@@H]2CCN2C(=O)[C@@]2(O)CCS(=O)(=O)c3c(Cl)cc(Cl)cc32)cc1` [Example 6, (R)-6,8-Dichloro-4-hydroxy-1,1-dioxothiochromane-4-yl-C(O)-Aze-Pab(OMe)], the “oral and/or parenteral bioavailability as the corresponding active inhibitor (free amidine)” value in series [2] and in series [1] (Test G as printed) was “exhibit oral and/or parenteral bioavailability in the rat as the corresponding active inhibitor (free amidine)” each time. For `COc1cc(Cl)cc2c1S(=O)(=O)CC[C@]2(O)C(=O)N1CC[C@H]1C(=O)NCc1ccc(C(N)=NOCc2ccccc2)cc1` [Example 4, (R)-6-Chloro-4-hydroxy-8-methoxy-1,1-dioxothiochromane-4-yl-C(O)-Aze-Pab(OBn)], in series [1], the “oral and/or parenteral bioavailability as the corresponding active inhibitor (free amidine)” value is listed as “exhibit oral and/or parenteral bioavailability in the rat as the corresponding active inhibitor (free amidine)”. For `COc1cc(Cl)cc2c1S(=O)(=O)CC[C@]2(O)C(=O)N1CC[C@H]1C(=O)NCc1ccc(C(=N)N)cc1` [Example 1, (R)-6-Chloro-4-hydroxy-8-methoxy-1,1-dioxothiochromane-4-yl-C(O)-Aze-Pab], on Human thrombin, the 50% inhibitory concentration (IC50) is < 50 nM.
